Results from PubChem BioAssay (NCI).
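Results reflect a 48-hour exposure of cells in 96-well plates to compound at five concentrations. Here, GI50 denotes the concentration required for 50% inhibition of growth. TGI denotes the concentration required for complete inhibition of growth.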

What was measured:
Test in all cases: growth of human tumour cells (NCI), 48 h
PC-3 prostate = system: PC-3 prostate
SF-539 CNS = system: SF-539 CNS
ACHN renal = system: ACHN renal
NCI/ADR-RES ovarian = system: NCI/ADR-RES ovarian
OVCAR-8 ovarian = system: OVCAR-8 ovarian
NCI-H522 lung = system: NCI-H522 lung
NCI-H460 lung = system: NCI-H460 lung
NCI-H23 lung = system: NCI-H23 lung
SNB-75 CNS = system: SNB-75 CNS
NCI-H226 lung = system: NCI-H226 lung
SR leukemia = system: SR leukemia
MDA-MB-435 = system: MDA-MB-435
IGROV1 ovarian = system: IGROV1 ovarian
DU-145 prostate = system: DU-145 prostate
SF-268 CNS = system: SF-268 CNS
HS 578T breast = system: HS 578T breast
U251 CNS = system: U251 CNS
HL-60(TB) leukemia = system: HL-60(TB) leukemia
MCF7 breast = system: MCF7 breast
RPMI-8226 leukemia = system: RPMI-8226 leukemia
786-0 renal = system: 786-0 renal
SK-MEL-2 melanoma = system: SK-MEL-2 melanoma
HOP-92 NSCLC = system: HOP-92 NSCLC
MDA-MB-231 breast = system: MDA-MB-231 breast
COLO 205 colon = system: COLO 205 colon
EKVX NSCLC = system: EKVX NSCLC
OVCAR-3 ovarian = system: OVCAR-3 ovarian
OVCAR-5 ovarian = system: OVCAR-5 ovarian
A498 renal = system: A498 renal
RXF 393 renal = system: RXF 393 renal
KM12 colon = system: KM12 colon
HCT-15 colon = system: HCT-15 colon
LOX IMVI melanoma = system: LOX IMVI melanoma
SW-620 colon = system: SW-620 colon
SNB-19 CNS = system: SNB-19 CNS
MALME-3M melanoma = system: MALME-3M melanoma
BT-549 breast = system: BT-549 breast
UO-31 renal = system: UO-31 renal
M14 melanoma = system: M14 melanoma
OVCAR-4 ovarian = system: OVCAR-4 ovarian
SF-295 CNS = system: SF-295 CNS
HT29 colon = system: HT29 colon
HCT-116 colon = system: HCT-116 colon
A549 NSCLC = system: A549 NSCLC
TK-10 renal = system: TK-10 renal
CCRF-CEM leukemia = system: CCRF-CEM leukemia
HOP-62 NSCLC = system: HOP-62 NSCLC
T-47D breast = system: T-47D breast
UACC-62 melanoma = system: UACC-62 melanoma
MOLT-4 leukemia = system: MOLT-4 leukemia
SK-MEL-5 melanoma = system: SK-MEL-5 melanoma
HCC-2998 colon = system: HCC-2998 colon
SK-MEL-28 melanoma = system: SK-MEL-28 melanoma
SK-OV-3 ovarian = system: SK-OV-3 ovarian
SN12C renal = system: SN12C renal
UACC-257 melanoma = system: UACC-257 melanoma

Question: What does the source list for `CN1C[C@@H](c2ccc(Cl)cc2)[C@]2(NC(=S)N(c3ccc(F)c(Cl)c3)C2=O)[C@@]12C(=O)NC1C=CC(Cl)=C[C@H]12` (some centres not stated)?
Answer: GI50 (PC-3 prostate): 2250 nM; TGI (PC-3 prostate): 6.42 µM; GI50 (SF-539 CNS): 3.29 µM; TGI (SF-539 CNS): 12.2 µM; GI50 (ACHN renal): 3.07 µM; TGI (ACHN renal): 10.6 µM; GI50 (NCI/ADR-RES ovarian): 2540 nM; TGI (NCI/ADR-RES ovarian): 8.97 µM; GI50 (OVCAR-8 ovarian): 2780 nM; TGI (OVCAR-8 ovarian): 8.6 µM; GI50 (NCI-H522 lung): 2840 nM; TGI (NCI-H522 lung): 10.9 µM; GI50 (NCI-H460 lung): 2440 nM; TGI (NCI-H460 lung): 6.09 µM; GI50 (NCI-H23 lung): 2660 nM; TGI (NCI-H23 lung): 10.1 µM; GI50 (SNB-75 CNS): 1870 nM; TGI (SNB-75 CNS): 9.92 µM; GI50 (NCI-H226 lung): 1820 nM; TGI (NCI-H226 lung): 4.72 µM; GI50 (SR leukemia): 2790 nM; TGI (SR leukemia): 7.18 µM; GI50 (MDA-MB-435): 3.02 µM; TGI (MDA-MB-435): 11.2 µM; GI50 (IGROV1 ovarian): 3.12 µM; TGI (IGROV1 ovarian): 14.6 µM; GI50 (DU-145 prostate): 3.35 µM; TGI (DU-145 prostate): 12.6 µM; GI50 (SF-268 CNS): 2890 nM; TGI (SF-268 CNS): 11.2 µM; GI50 (HS 578T breast): 2960 nM; TGI (HS 578T breast): 16.7 µM; GI50 (U251 CNS): 2010 nM; TGI (U251 CNS): 4.71 µM; GI50 (HL-60(TB) leukemia): 2480 nM; TGI (HL-60(TB) leukemia): 6.02 µM; GI50 (MCF7 breast): 2820 nM; TGI (MCF7 breast): 12 µM; GI50 (RPMI-8226 leukemia): 2720 nM; TGI (RPMI-8226 leukemia): 7.06 µM; GI50 (786-0 renal): 2080 nM; TGI (786-0 renal): 4.82 µM; GI50 (SK-MEL-2 melanoma): 3.08 µM; TGI (SK-MEL-2 melanoma): 10.3 µM; GI50 (HOP-92 NSCLC): 2490 nM; TGI (HOP-92 NSCLC): 7.13 µM; GI50 (MDA-MB-231 breast): 1880 nM; TGI (MDA-MB-231 breast): 4.27 µM; GI50 (COLO 205 colon): 1750 nM; TGI (COLO 205 colon): 3.46 µM; GI50 (EKVX NSCLC): 2720 nM; TGI (EKVX NSCLC): 20.3 µM; GI50 (OVCAR-3 ovarian): 2120 nM; TGI (OVCAR-3 ovarian): 4.75 µM; GI50 (OVCAR-5 ovarian): 2360 nM; TGI (OVCAR-5 ovarian): 6.14 µM; GI50 (A498 renal): 2740 nM; TGI (A498 renal): 10.1 µM; GI50 (RXF 393 renal): 1880 nM; TGI (RXF 393 renal): 3.73 µM; GI50 (KM12 colon): 2000 nM; TGI (KM12 colon): 4.92 µM; GI50 (HCT-15 colon): 3000 nM; TGI (HCT-15 colon): 10.3 µM; GI50 (LOX IMVI melanoma): 1700 nM; TGI (LOX IMVI melanoma): 3.33 µM; GI50 (SW-620 colon): 3.19 µM; TGI (SW-620 colon): 13.1 µM; GI50 (SNB-19 CNS): 3.17 µM; TGI (SNB-19 CNS): 14.4 µM; GI50 (MALME-3M melanoma): 2810 nM; TGI (MALME-3M melanoma): 9.09 µM; GI50 (BT-549 breast): 4.62 µM; TGI (BT-549 breast): 17.1 µM; GI50 (UO-31 renal): 1600 nM; TGI (UO-31 renal): 3.86 µM; GI50 (M14 melanoma): 2950 nM; TGI (M14 melanoma): 10.6 µM; GI50 (OVCAR-4 ovarian): 3.75 µM; TGI (OVCAR-4 ovarian): 18.6 µM; GI50 (SF-295 CNS): 1890 nM; TGI (SF-295 CNS): 4.46 µM; GI50 (HT29 colon): 2100 nM; TGI (HT29 colon): 4.24 µM; GI50 (HCT-116 colon): 3.12 µM; TGI (HCT-116 colon): 10.2 µM; GI50 (A549 NSCLC): 3.34 µM; TGI (A549 NSCLC): 12.3 µM; GI50 (TK-10 renal): 3.48 µM; TGI (TK-10 renal): 8.06 µM; GI50 (CCRF-CEM leukemia): 4.13 µM; TGI (CCRF-CEM leukemia): 18.6 µM; GI50 (HOP-62 NSCLC): 3.14 µM; TGI (HOP-62 NSCLC): 12.7 µM; GI50 (T-47D breast): 2850 nM; TGI (T-47D breast): 13.6 µM; GI50 (UACC-62 melanoma): 3.11 µM; TGI (UACC-62 melanoma): 12.3 µM; GI50 (MOLT-4 leukemia): 2870 nM; TGI (MOLT-4 leukemia): 14.6 µM; GI50 (SK-MEL-5 melanoma): 1970 nM; TGI (SK-MEL-5 melanoma): 4.21 µM; GI50 (HCC-2998 colon): 3.85 µM; TGI (HCC-2998 colon): 13.8 µM; GI50 (SK-MEL-28 melanoma): 3.61 µM; TGI (SK-MEL-28 melanoma): 12.9 µM; GI50 (SK-OV-3 ovarian): 3.09 µM; TGI (SK-OV-3 ovarian): 10.4 µM; GI50 (SN12C renal): 1860 nM; TGI (SN12C renal): 3.74 µM; GI50 (UACC-257 melanoma): 3.48 µM; TGI (UACC-257 melanoma): 14.1 µM
